# Laboratory results from US20220169632A1, “METHODS AND MATERIALS FOR INCREASING OR MAINTAINING NICOTINAMIDE MONONUCLEOTIDE ADENYLYL TRANSFERASE-2 (NMNAT2) POLYPEPTIDE LEVELS” (University of Pittsburgh - Of the Commonwealth System of …, priority 2019, published 2022).
# System: NMNAT2
# Assay: NMNAT2-Hibit nano-luciferase activity in stably transfected U87MG cells, various concentrations, 24 hours
# Assay type: cell-based
# Details: U87MG cells stably transfected with NMNAT2-Hibit luc plasmid
# Experimental: Selected compounds were tested in vitro. U87MG cells were stably transfected with NMNAT2-Hibit luc plasmid. Cells were treated with a test compound at various concentrations for 24 hours. Cells were then collected and assayed for nano-luciferase activity.
row,Structure (SMILES),E: compound efficacy for NMNAT2 activation (concentration giving >25% increase in NMNAT2 luciferase activity)
1,O=C(NCc1ccco1)C1CCc2c(c3ccccc3n2Cc2cccc(F)c2)C1 (centres unmarked) [BC20220],++ (“++” >25% increase in NMNAT2 luciferase activity at >1 μM ≤25 μM.)
2,Cc1ccc(C)c(Cn2c3c(c4ccccc42)CN(C(=O)NCc2cccc(F)c2)CC3)c1 [BC20253],+ (“+” >25% increase in NMNAT2 luciferase activity at >25 μM.)
3,O=C(Cn1c2c(c3ccccc31)CN(C(=O)NCC1CCCO1)CC2)NCc1ccco1 (centres unmarked) [BC20328],+ (“+” >25% increase in NMNAT2 luciferase activity at >25 μM.)
4,Cc1ccccc1Cn1c(C)c(C)c2cc(C(=O)NCc3ccncc3)ccc21 [BC20209],++ (“++” >25% increase in NMNAT2 luciferase activity at >1 μM ≤25 μM.)
5,O=C(NCc1ccco1)N1CCc2c(c3ccccc3n2Cc2cccc(F)c2)C1 [BC20308],++ (“++” >25% increase in NMNAT2 luciferase activity at >1 μM ≤25 μM.)
6,Cc1ccc(CNC(=O)N2CCc3c(c4ccccc4n3Cc3cccc(F)c3)C2)cc1 [BC20331],+ (“+” >25% increase in NMNAT2 luciferase activity at >25 μM.)
7,CCCCN(CC)Cc1ccc(CNC(=O)C2CCc3c(c4ccccc4n3Cc3cccc(F)c3)C2)o1 (centres unmarked) [BC20259],+++ (“+++” >25% increase in NMNAT2 luciferase activity at ≤1 μM.)
8,O=C(Cn1c2c(c3ccccc31)CC(C(=O)NCCc1ccccc1)CC2)NCc1ccco1 (centres unmarked) [BC20262],++ (“++” >25% increase in NMNAT2 luciferase activity at >1 μM ≤25 μM.)
9,Cc1cccc(CNC(=O)c2ccc3c(c2)c(C)c(C)n3Cc2cccc(F)c2)c1 [BC20114],++ (“++” >25% increase in NMNAT2 luciferase activity at >1 μM ≤25 μM.)
10,Cc1ccc(Cn2c3c(c4ccccc42)C(C(=O)NCc2cccnc2)CCC3)cc1 (centres unmarked) [BC20389],++ (“++” >25% increase in NMNAT2 luciferase activity at >1 μM ≤25 μM.)
11,O=C(NCc1ccco1)C1CCCc2c1c1ccccc1n2Cc1cccc(F)c1 (centres unmarked) [BC20368],++ (“++” >25% increase in NMNAT2 luciferase activity at >1 μM ≤25 μM.)
12,Cc1ccc(C)c(Cn2c(C)c([C@H]3C[C@@H]3C(=O)NCc3ccco3)c3ccccc32)c1 (racemic) [BC20323],+ (“+” >25% increase in NMNAT2 luciferase activity at >25 μM.)
13,O=C(Cn1cc(C(=O)c2ccc(Cl)cc2)c2ccccc21)NCCc1ccccc1 [BC20215],++ (“++” >25% increase in NMNAT2 luciferase activity at >1 μM ≤25 μM.)
14,Cc1ccccc1CNC(=O)C1CCc2c(c3ccccc3n2Cc2ccncc2)C1 (centres unmarked) [BC20280],+ (“+” >25% increase in NMNAT2 luciferase activity at >25 μM.)
15,Cc1ccc(C)c(Cn2c3c(c4ccccc42)CC(C(=O)NCc2cccc(F)c2)CC3)c1 (centres unmarked) [BC20184],+ (“+” >25% increase in NMNAT2 luciferase activity at >25 μM.)
16,O=C1CC(c2cn(Cc3cccc(F)c3)c3ccccc23)CCN1Cc1ccncc1 (centres unmarked) [BC20322],++ (“++” >25% increase in NMNAT2 luciferase activity at >1 μM ≤25 μM.)
17,Cc1c(C)n(Cc2cccc(F)c2)c2ccc(C(=O)NCc3ccco3)cc12 [BC20101],+++ (“+++” >25% increase in NMNAT2 luciferase activity at ≤1 μM.)
18,O=C(c1ccc(Cl)cc1)c1cn(CC(=O)N2CCN(C(=O)c3ccco3)CC2)c2ccccc12 [BC20182],+ (“+” >25% increase in NMNAT2 luciferase activity at >25 μM.)
19,Cc1ccccc1Cn1c(C)c(C)c2cc(C(=O)NCc3cccnc3)ccc21 [BC20208],++ (“++” >25% increase in NMNAT2 luciferase activity at >1 μM ≤25 μM.)
20,COCCN(CCNC(=O)[C@H]1C[C@@H]1c1cn(Cc2cc(C)ccc2C)c2ccccc12)Cc1ccco1 (racemic) [BC20365],+ (“+” >25% increase in NMNAT2 luciferase activity at >25 μM.)
21,Cc1ccccc1CCN1CCc2cn(Cc3cccc(F)c3)c3cccc(c23)C1=O [BC20314],+ (“+” >25% increase in NMNAT2 luciferase activity at >25 μM.)
22,Cc1ccc(CNC(=O)CCCc2cn(Cc3cccc(F)c3)c3ccccc23)o1 [BC20136],++ (“++” >25% increase in NMNAT2 luciferase activity at >1 μM ≤25 μM.)

row,Structure (SMILES),E: compound efficacy for NMNAT2 activation (concentration giving >25% increase in NMNAT2 luciferase activity)
1,Cc1ccc(C)c(Cn2cc([C@H]3C[C@@H]3C(=O)NCc3cccc(F)c3)c3ccccc32)c1 (racemic) [BC20346],+ (“+” >25% increase in NMNAT2 luciferase activity at >25 μM.)
2,Cc1cccc(NC(=O)CCCc2cn(Cc3ccccc3F)c3ccccc23)c1C [BC20134],++ (“++” >25% increase in NMNAT2 luciferase activity at >1 μM ≤25 μM.)
3,Cc1ccc(C)c(Cn2c(C(F)F)c(CCC(=O)NCC3CCCO3)c3ccccc32)c1 (centres unmarked) [BC20392],+ (“+” >25% increase in NMNAT2 luciferase activity at >25 μM.)
4,CCCCN(CC)Cc1ccc(CNC(=O)CCCc2cn(Cc3ccccc3C)c3ccccc23)o1 [BC20162],+++ (“+++” >25% increase in NMNAT2 luciferase activity at ≤1 μM.)
5,Cc1cccc(Cn2cc(CCCC(=O)NCc3ccncc3)c3ccccc32)c1 [BC20174],++ (“++” >25% increase in NMNAT2 luciferase activity at >1 μM ≤25 μM.)
6,Cc1ccc(C)c(Cn2cc([C@H]3C[C@@H]3C(=O)NCc3ccccn3)c3ccccc32)c1 (racemic) [BC20366],+ (“+” >25% increase in NMNAT2 luciferase activity at >25 μM.)
7,Cc1cccc(CNC(=O)CCCc2cn(Cc3cccc(F)c3)c3ccccc23)c1 [BC20141],+ (“+” >25% increase in NMNAT2 luciferase activity at >25 μM.)
8,Cc1c(C)n(Cc2ccccc2F)c2ccc(C(=O)N(CCCN3CCOCC3)Cc3ccco3)cc12 [BC20263],++ (“++” >25% increase in NMNAT2 luciferase activity at >1 μM ≤25 μM.)
9,COc1cccc(CNC(=O)C2CCCc3c2c2ccccc2n3Cc2cccc(F)c2)c1 (centres unmarked) [BC20375],+ (“+” >25% increase in NMNAT2 luciferase activity at >25 μM.)
10,Cc1ccccc1CNC(=O)CCCc1cn(Cc2ccccc2F)c2ccccc12 [BC20125],++ (“++” >25% increase in NMNAT2 luciferase activity at >1 μM ≤25 μM.)
11,CCCCN(CC)Cc1ccc(CNC(=O)CCCc2cn(Cc3cccc(F)c3)c3ccccc23)o1 [BC20212],+++ (“+++” >25% increase in NMNAT2 luciferase activity at ≤1 μM.)
12,Cc1cccc(Cn2cc(CCCC(=O)N3CCN(C(=O)c4ccco4)CC3)c3ccccc32)c1 [BC20170],++ (“++” >25% increase in NMNAT2 luciferase activity at >1 μM ≤25 μM.)
13,O=C1NCCc2cn(Cc3cccc(F)c3)c3cccc1c23 [BC20315],+ (“+” >25% increase in NMNAT2 luciferase activity at >25 μM.)
14,COc1cccc(CNC(=O)C2CCCc3c2c2ccccc2n3Cc2ccc(C)cc2)c1 (centres unmarked) [BC20387],+ (“+” >25% increase in NMNAT2 luciferase activity at >25 μM.)
15,O=C(NCC1CCCO1)N1CCc2c(c3ccccc3n2Cc2ccncc2)C1 (centres unmarked) [BC20358],+ (“+” >25% increase in NMNAT2 luciferase activity at >25 μM.)
16,O=C(NCc1cccnc1)C1CCCc2c1c1ccccc1n2Cc1cccc(F)c1 (centres unmarked) [BC20379],++ (“++” >25% increase in NMNAT2 luciferase activity at >1 μM ≤25 μM.)
17,COc1ccccc1CNC(=O)CCCc1cn(Cc2cccc(F)c2)c2ccccc12 [BC20142],++ (“++” >25% increase in NMNAT2 luciferase activity at >1 μM ≤25 μM.)
18,Cc1ccc(C)c(Cn2c3c(c4ccccc42)CC(C(=O)NCc2ccccc2C)CC3)c1 (centres unmarked) [BC20185],++ (“++” >25% increase in NMNAT2 luciferase activity at >1 μM ≤25 μM.)
19,Cc1c(C)n(Cc2ccccc2F)c2ccc(C(=O)NC(C)Cc3ccco3)cc12 (centres unmarked) [BC20244],+ (“+” >25% increase in NMNAT2 luciferase activity at >25 μM.)
20,Cc1ccc(C)c(Cn2cc3c4c(cccc42)C(=O)N(Cc2ccccc2F)CC3)c1 [BC20269],+ (“+” >25% increase in NMNAT2 luciferase activity at >25 μM.)
21,Cc1cccc(CNC(=O)CCCc2cn(Cc3cccc(C)c3)c3ccccc23)c1 [BC20168],++ (“++” >25% increase in NMNAT2 luciferase activity at >1 μM ≤25 μM.)
22,CCOC(=O)Cn1cc(C2=CC(=O)NCC2)c2ccccc21 [BC20234],++ (“++” >25% increase in NMNAT2 luciferase activity at >1 μM ≤25 μM.)
